Test results taken from patent US20040029244A1, “Phospholipase d effectors for therapy and screening” (priority 2003, published 2004).
Starred links: 1 amine or outer side, 2 acyl side, 3 side chain; linkers in the order of their positions; H or OH if unused. Positions of bridges follow the written chain, without caps; N, C: chain ends. Non-standard residues stand in square brackets, D forms with d. Residues, ends and D or L forms follow the SMILES beside them. Chains are numbered I, II in the order given. Actinocin(9to1) = Cc1c2oc3c(C)ccc(C(=O)[*:1])c3nc-2c(C(=O)[*:2])c(N)c1=O; NMeV = CN[C@H](C(=O)O)C(C)C; Sar = CNCC(=O)O

Columns and labels:
Assay type in all cases: cell-based, human
[1] = tested on: MMP-9 secretion from HT 1080 cells; test: MMP-9 secretion and activity assay (zymogram gels of cell medium); conditions: for MMP-9 secretion in response to various PMA concentrations at 133 mM alcohol: 133 mM alcohol 45 min before PMA, FIG. 4B; for effect on PMA-induced MMP-9 secretion at 200 mM alcohol: 200 mM alcohol 45 min before 100 nM PMA
Experimental: FIG. 4. […] Overnight serum-deprived cells were incubated in freshly added DMEM, 0.1% BSA. A, the indicated concentrations of either 2-propanol or 1-propanol were then added. After 45 min, 100 nM PMA-was added and cells were incubated for 7.5 h after which media samples (5 ? l) were analyzed for MMP-9 secretion. B, the cells were incubated with 133 mM 2-propanol or 1-propanol for 45 min. PMAa was then introduced to give the indicated concentrations. The cells were incubated for 7.5 h after which 5 ? l media samples were analyzed for MMP-9 secretion. The data shown are representative of three independent experiments. […]
MMP-9 secretion and activity assay Before assay, the cell medium was replaced with fresh DMEM, 0.1% BSA containing, unless otherwise described, 100 nM PMA. In experiments involving inhibition with BFA, it was added 30 min before induction with PMA. Medium samples were collected after 7.5 h and loaded with non-reducing sample buffer (2% SDS, 10% glycerol in 62.5 mM Tris pH 6.8) on zymogram gels. Before developing, gels were rinsed for 30 min in renaturing buffer and then 30 min in developing buffer at room temperature. Gels were incubated in fresh developing buffer for 18 h at 37° C. MMP-9 activity was indicated by the clear 92 kDa band that appeared after staining with Coomassie brilliant blue and removing excess dye by an 18 h rinse in water. Gels were dried and scanned and then the image was inverted (clear to black and black to clear).

PLD in HT 1080 cells = test: In vivo PLD assay ([3H]phosphatidylbutanol formation in labeled cells)
Experimental: FIG. 2. Activation of PLD in PMA-treated HT 1080 cells. The cells, at their log phase of growth, were serum deprived and labeled with […] [^3H]myristic acid. Following washing and preincubation with DMEM, 0.1% BSA, 0.3% 1-butanol for 20 min, and 100 nM PMA were added, and cells were incubated for the indicated times at 37° C. Lipids were extracted and analyzed, and the production of labelled phosphatidylbutanol ([^3H]PtdBut) was measured as described under “Materials and Methods”. The values obtained for [^3H]PtdBut were normalized by dividing the measured counts/min by counts/min in the total lipid fraction. Data are expressed as the mean±S.E. of the fold activation in three independent experiments performed in triplicates.
In vivo PLD assay Serum-deprived cells were labeled for 18 h with 1 μCi/ml [^3H]myristic acid and were washed with DMEM, 0.1% BSA. Following 20 min preincubation in DMEM, 0.1% BSA, 0.3% 1-butanol, the cells were stimulated with, unless otherwise described, 100 nM PMA for 20 min. Cells were washed with phosphate saline buffer (PBS) (2.68 mM KC1, 1.47 mM KH2PO4, 8.05 mM Na2PO4, 137 mM NaC1), 0.1% BSA, scraped with 1 ml ice cold CH3OH and transferred into glass tubes. CHC13 and 0.1 N HC1 were added to a final ratio of 1:1:1. The lipid-containing lower phase was collected, dried and dissolved in 30 μl CH3OH, CHC13 (1:1). The samples were loaded on a TLC plate which was developed in the lower phase of H2O, ethylacetate, acetic acid and iso-octane (100:110:20:50 respectively). Tritiated phosphatidylbutanol (PdtBut) was measured after scraping the band corresponding to the PtdBut standard (Avanti Polar Lipids).

[2] = tested on: MMP-9 expression in HT 1080 cells; test: Cell lysis and immunoblotting with rabbit anti MMP-9; conditions: 7.5 h
Experimental: FIG. 6. Phophatidic acid mediates protein kinase C induction of MMP-9 expression. A, Overnight serum-deprived cells were incubated in freshly added DMEM, 0.1% BSA containing either 100 nM PMA or 80 ? g/ml DDPA. B. Overnight serum-deprived cells were incubated in freshly added DMEM, 0.1% BSA containing 0.5% of either 1-propanol or 2-propanol for control. Following 7.5 h incubation cells were lysed with RIPA buffer and 15 ? g whole cell lysate were subjected to SDS-PAGE and immunoblotting with rabbit anti MMP-9. Immunoreactive bands were visualized using the ECL reaction. The data shown are representative of three independent experiments.
Cell lysis and immunoblotting Overnight serum-deprived cells in 60 mm plates were washed with PBS and then lysed with 750 μl RIPA^− buffer (1% NP-40, 0.1% SDS, 100 mM NaF, 10 mM Na pyrophosphate, 2.5 mM Na3VO4 in PBS). RIPA^− soluble fraction was separated from the non-solube fraction by 15 min centrifugation in a bench top microcentrifuge at 14,000 rpm at 4° C. Protein samples (15 μg) were analyzed after SDS-polyacrylamide gel electrophoresis (SDS-PAGE) by immunoblotting with rabbit anti MMP-9 or anti actin diluted according to manufacturer instructions in PBS, 0.5% Tween 20 and 5% dry milk powder and with horseradish peroxidase-labeled secondary antibody. Immunoreactive bands were visualized by the enhanced chemiluminescence (ECL) reaction.

CC(C)O [2-propanol]
MMP-9 secretion in response to various PMA concentrations at 133 mM alcohol ([1]; 7.5 h): continues to be dose-dependent | effect on PMA-induced MMP-9 secretion at 200 mM alcohol ([1]; 7.5 h, FIG. 4A): inhibitory

Cc1c2oc3c(C)ccc(C(=O)N[C@@H]4C(=O)N[C@H](C(C)C)C(=O)N5CCC[C@H]5C(=O)N(C)CC(=O)N(C)[C@@H](C(C)C)C(=O)O[C@@H]4C)c3nc-2c(C(=O)N[C@@H]2C(=O)N[C@H](C(C)C)C(=O)N3CCC[C@H]3C(=O)N(C)CC(=O)N(C)[C@@H](C(C)C)C(=O)O[C@@H]2C)c(N)c1=O [ActD, actinomycin D] (I: T[dV]P[Sar][NMeV] / II: T[dV]P[Sar][NMeV]; ester I:1-I:C, II:1-II:C; linker I:N-II:N via Actinocin(9to1))
effect on MMP-9 secretion induced with phosphatidic acid ([1]; 10 μg/ml ActD 45 min, then 80 μg/ml DDPA, 7.5 h, FIG. 5): fully decreased

CCCCCCCCCCCCCC(=O)O[C@@H]1[C@@H](C)[C@@]2(O)[C@@H](C=C(CO)C[C@]3(O)C(=O)C(C)=C[C@@H]23)[C@@H]2C(C)(C)[C@]12OC(C)=O [PMA, phorbol 12-myristate 13-acetate]
MMP-9 activity accumulating in the medium of treated cells ([1]; HT 1080 cells, 100 nM PMA, various times up to 7.5 h): time-dependent manner | lowest concentrations at which MMP-9 secretion is detected ([1]; HT 1080 cells, 7.5 h, FIG. 1B): 0.5 to 1 nM | time at which PtdBut formation (PLD activity) reaches a maximum (PLD in HT 1080 cells; 100 nM PMA, 0.3% 1-butanol, FIG. 2): 90 min | concentration at which the PLD response is detectable (PLD in HT 1080 cells; HT 1080 cells, data not shown): 1 nM | concentration at which the PLD response is maximal (PLD in HT 1080 cells; HT 1080 cells, data not shown): 100 nM

Cn1cc(C2=C(c3cn(CCCSC(=N)N)c4ccccc34)C(=O)NC2=O)c2ccccc21 [Ro 31-8220]
effect on PMA-induced MMP-9 secretion ([1]; 5 μM inhibitor preincubated 1 h, then 100 nM PMA, 7.5 h, FIG. 1C): inhibition of secretion

phosphatidic acid [PA]
induction of MMP-9 expression (immunoblot) ([2]; HT 1080 cells, 80 μg/ml DDPA, FIG. 6A): induces de novo MMP-9 expression

diodecanoylphosphatidic acid [DDPA]
induction of MMP-9 secretion ([1]; HT 1080 cells, various concentrations, 7.5 h, FIG. 3): induces MMP-9 secretion in a dose-dependent manner

CCCO [1-propanol]
effect on PMA-induced MMP-9 secretion at 100 mM alcohol ([1]; 100 mM alcohol 45 min before 100 nM PMA, 7.5 h, FIG. 4A): inhibited | MMP-9 secretion in response to various PMA concentrations at 133 mM alcohol ([1]; 7.5 h): almost totally suppressed | effect on PMA-induced MMP-9 secretion at 200 mM alcohol ([1]; 7.5 h, FIG. 4A): almost absolute suppression | MMP-9 expression in PMA-treated cells (immunoblot) ([2]; 0.5% alcohol pretreatment, PMA, whole cell lysate, FIG. 6): suppressed
